Test results published in patent US7655253B2, “Navel orangeworm pheromone composition” (Bedoukian Research, Inc., priority 2004, dated 2010).
Each block holds one compound with its values, some of them ahead of it.

Experiments:
[1] = system: major pheromone-binding protein (AtraPBP); assay: Binding assays with recombinant olfactory proteins; parameters: species or system navel orangeworm, A. transitella; settings: preliminary screening of ligands
Excerpt: Synthetic pheromone compositions can be conveniently tested in the assays described below. For example, the synthetic pheromone compositions of the present invention can be tested.to determine affinity for a pheromone-binding protein (AtraPBP) present in the navel orangeworm. Alternatively, the compositions can be tested for the ability to stimulate the olfactory receptor neurons (ORNs) in the insect's sensilla trichodea producing a response that indicates the presence or absence of a pheromone. In a typical embodiment, the compositions stimulate an electroantennogram response from an insect pest antenna, as described below.
Results. A comprehensive approach was taken in studying chemical communication in the navel orangeworm, A. transitella. Pheromone- and odorant-binding proteins were isolated, cloned, and expressed.

NOW males = assay: Wind tunnel bioassays of male NOW flight responses; assay type: in vivo, Amyelois transitella
Procedure: Flight responses of male NOW to different blends and doses of synthesized pheromone components were tested in the ARS wind tunnel. Males were 2-3 days old and were used during the last two hours of shotophase (dark cycle). The wind tunnel room was maintained at 23-26° C. with >35% relative humidity. NOW males were placed in individual aluminum-screen cages during their 1st or 2nd photophase and then held in an incubator until one hour prior to testing, when they were transferred from their dark incubator to the wind tunnel. […] After conditioning to ambient conditions in the wind tunnel for one hour, males were assayed individually to test compounds formulated on 1cm dia. filter paper disks. Information recorded included the number of males per trial that reached the pheromone source, the time to reach the pheromone source, and observations of the flight behavior (e.g., relatively straight flight; looping flight; veering out of the pheromone plume, etc.)
Subsequent wind tunnel tests were evaluated on quantitative as well as qualitative responses of NOW males to test formulations. All treatments were applied to 1 cm filter paper disks in at least 25 ul of hexane, to fully “wet” the paper surface, and at least 5 males were tested individually to each pheromone blend.

[2] = system: olfactory receptor neurons (ORN) in sensilla trichodea of male moth antennae; assay: Single sensillum recordings (SSR) from sensilla trichodea; parameters: species or system Amyelois transitella
Excerpt: Single sensillum recordings (SSR). Male moths were immobilized with dental wax on the recording stage of a single sensillum recording unit (Syntech, INR-02), the tip of the sensilla were cut (Kaissling, K. E. Single unit and electroantennogram recordings in insect olfactory organs, In: Spielman A. I., Brand J. G. (ed) Experimental Cell Biology of Taste and Olfaction: Current Techniques and Protocols, CRC Press, Boca Raton, pp.361-386 (1995)) and placed under a stereomicroscope (SZX12,Olympus, Tokyo, Japan). The indifferent (ground) electrode was a thin tungsten electrode inserted into the head. The recording glass electrode was slipped over the cut tip of the sensilla with a Piezo Manipulator (PM-10, World Precision Instruments, Sarasota, Fla.) while the signal was monitored with a Tektronix oscilloscope (TDS-2014). The pre-amplified signal was acquired with an acquisition system (IDAC-USB, Syntech) and SSR software (Autospike 2000, Syntech). The antennal preparation was continuously flushed with clean air at 0.5 m/s. Each stimulus was applied to a filter paper, dried at least 10 min, and placed within a glass cartridge (7 mm i.d.; 5 cm long). The cartridge opening was placed 1 cm in front of the antennae. The stimulus air was delivered by a stimulus controller (CD-02/E, Syntech).

[3] = system: male moth antennae (navel orangeworm); assay: GC-EAD using male navel orangeworm antennae as sensing element; parameters: species or system Amyelois transitella; settings: for EAD activity of natural constituent: peaks in female pheromone gland extract or its fractions; for EAD activity of synthetic or authentic compound: synthetic standard
Procedure: General. Gas chromatography-mass spectrometry (GC-MS), described in Examples 1-6, was obtained with a 5973 Network Mass Selective Detector linked to a 6890 Network GC System (Agilent Technologies, Palo Alto, Calif.) operated either in the electron impact (EI) or chemical ionization (CI) mode. Chromatographic resolution was done on an HP-5MS column (30 m×0.25 mm; 0.25 μm; Agilent) that was operated at 70° C. for 1 min, increased to 250° C. at a rate of 10° C./min and held at this temperature for 10 min. Vapor phase infrared spectroscopy was carried out on a Win GC/IR Pro (Varian Inc., formerly Digilab, Randolph, Mass.) with a GC/IR interface and a Scimitar FTS 2000 linked to a 6890 Network GC System (Agilent). Separation was done on a HP-5 column (30 m×0.32 mm; 0.25 μm; Agilent) operated at 100° C. for 1 min, increased to 250° C. at a rate of 20° C./min and held at this temperature for 5 min; the transfer line and light pipe were operated at 250° C. Gas chromatography with electroantennographic detection (GC-EAD) was done with two different systems: HP 5890 and HP 6890 (Agilent) both having Syntech's GC-EAD transfer lines and temperature control units (Hilversum, The Netherlands). In both systems, the effluent from the capillary column was split into EAD and flame ionization detector (FID) in 3:1 ratios. Male antennae were placed in EAG probes (Syntech) and held in place with Spectra 360 electrode gel (Parker Laboratories, Orange, N.J.). These probes were connected to AM-01 amplifiers (Syntech). The analog signals were fed into A/D 35900E interfaces (Agilent) and acquired simultaneously with FID signal on an Agilent Chemstation. Chromatographic separations were done either with HP-5MS column operated as in GC-MS or with HP-INNOWAX column (30 m×0.32 mm; 0.25 μm; Agilent) operated at 70° C. for 1 min, increased to 250° C. at a rate of 10° C./min and held at this temperature for 5 min.
Gas chromatography coupled with an electroantennographic detector (GC-EAD) using male moth antennae as the sensing element was used to determine the active constituents in these SSR-active fractions (3% and hexane). […] The peaks were numbered in the order of their retention times (tR) in a non-polar column (1: tR, 17.30 min; 2: 18.44 min; 3: 18.96 min; 4: 19.08 min; 5: 20.9 min; 6: 23.8 min). The retention times of these EAD-active peaks in a polar column (HP-INNOWAX) were: 16.59, 17.37, 18.32, and 18.72 min (3% fraction) and 18.52 and 20.22 min (hexane fraction).
Pheromone glands were individually dissected out of >2,000 virgin female NOW, and the glands were extracted in −250 microliters of pentane in composite batches of −250-300 glands per extract. The extracts were screened by GC-EAD analysis to locate the compounds which elicited responses from male antennae (i.e., potential pheromone compounds). The extracts were then concentrated to ˜10-20 microliters, and aliquots were analyzed on several GC columns with different polarity, by coupled GC-mass spectrometry, and by coupled GC-Fourier transform infrared spectrometry. A parallel set of studies was conducted with composite pheromone gland extracts prepared from Pyralis females. A subset of the extracts were also combined and fractionated by liquid chromatography, to provide samples for wind tunnel tests.

navel orangeworm = assay: Field trap tests, UC Davis, navel orangeworm captures; assay type: in vivo, Amyelois transitella; settings: 0.5 mg lure, 3-wk period
Procedure: (§1) Experimental. Tests were conducted in almond and walnut plot fields in the UC Davis campus. Pheromone samples (0.5 mg) were formulated in rubber septa or in 12 mm diameter, 3 mm thick discs (made of ES fiber, Chisso Co. Ltd, Tokyo, Japan) and loaded into Pherocon 1C traps (Trece Inc., Salinas, Calif.). Three or five 1 to 3-day old virgin females were placed in fiberglass screen cages (Curtis, C. E. and Clark, J. D., J Econ Entomol 77:1057-1061 (1984) Curtis et al., J Econ Entomol 78:1425-1430 (1985)). Baited and control traps were placed at ca. 1.8 m height in randomized blocks with the intertrap distance of ca. 10 m. Capture data were transformed to log (x+0.5) and analyzed by ANOVA. […] Means of captures are untransformed, and error bars show one standard error (SE).

meal moth = assay: Field trap tests, UC Davis, meal moth captures; assay type: in vivo, Pyralis farinalis; settings: for catches of meal moth in traps baited with virgin female navel orangeworm plus added compound: synthetic sample 0.5 mg per device added
Procedure: as §1

[4] = system: antennae of male meal moth; assay: GC-EAD using male meal moth antennae; parameters: species or system Pyralis farinalis
Procedure: General. Gas chromatography-mass spectrometry (GC-MS), described in Examples 1-6, was obtained with a 5973 Network Mass Selective Detector linked to a 6890 Network GC System (Agilent Technologies, Palo Alto, Calif.) operated either in the electron impact (EI) or chemical ionization (CI) mode. Chromatographic resolution was done on an HP-5MS column (30 m×0.25 mm; 0.25 μm; Agilent) that was operated at 70° C. for 1 min, increased to 250° C. at a rate of 10° C./min and held at this temperature for 10 min. Vapor phase infrared spectroscopy was carried out on a Win GC/IR Pro (Varian Inc., formerly Digilab, Randolph, Mass.) with a GC/IR interface and a Scimitar FTS 2000 linked to a 6890 Network GC System (Agilent). Separation was done on a HP-5 column (30 m×0.32 mm; 0.25 μm; Agilent) operated at 100° C. for 1 min, increased to 250° C. at a rate of 20° C./min and held at this temperature for 5 min; the transfer line and light pipe were operated at 250° C. […]
Pheromone glands were individually dissected out of >2,000 virgin female NOW, and the glands were extracted in −250 microliters of pentane in composite batches of −250-300 glands per extract. […] The extracts were then concentrated to ˜10-20 microliters, and aliquots were analyzed on several GC columns with different polarity, by coupled GC-mass spectrometry, and by coupled GC-Fourier transform infrared spectrometry. […]

affinity to AtraPBP [1]: apparent high affinity
SMILES: CC/C=C\C=C/CCCCCCCCCC=O (single isomer, unassigned) [Compound 1, (Z,Z)-11,13-hexadecadienal]
male NOW response in wind tunnel (NOW males; synthesized standards and crude extract): no test males responded
SSR response of olfactory receptor neurons [2]: large spike amplitude cells (FIG. 1A) were activated
EAD activity of natural constituent [3]: EAD-active
EAD activity of natural constituent ([3]; listed as (Z,Z)-1): strongest EAD-active peak
captures of male navel orangeworm in baited traps (navel orangeworm): captured no moths

SMILES: CC/C=C\C/C=C\C/C=C\C/C=C\C/C=C\CCCCCCCCC (single isomer, unassigned) [Compound 6, (Z,Z,Z,Z,Z)-3,6,9,12,15-pentacosapentaene]
EAD activity of natural constituent [3]: EAD-active

SMILES: CC/C=C\C/C=C\C/C=C\C/C=C\C/C=C\CCCCCCC (single isomer, unassigned) [Compound 5, (Z,Z,Z,Z,Z)-3,6,9,12,15-tricosapentaene]
EAD activity of natural constituent [3]: EAD-active

SMILES: CC/C=C\C=C/CCCCCCCCCCOC(C)=O (single isomer, unassigned) [Compound 4, (Z,Z)-11,13-hexadecadien-1-yl acetate]
catches of meal moth in traps baited with virgin female navel orangeworm plus added compound (meal moth): completely shut off
EAD activity of natural constituent [3]: EAD-active

SMILES: CC/C=C/C=C/CCCCCCCCCC=O [(E,E)-1]
SSR response of olfactory receptor neurons [2]: activated mainly a small spike ORN, with small activation of a large spike cell

SMILES: CC/C=C\C=C/CCCCCCCCCC(=O)OCC (single isomer, unassigned) [Compound 3, ethyl (Z,Z)-11,13-hexadecadienoate]
EAD activity of natural constituent [3]: EAD-active
EAD activity of synthetic or authentic compound [3]: EAD active

SMILES: CCCCCCCCCCCCCCCC(=O)OCC [ethyl palmitate]
EAD activity of synthetic or authentic compound [3]: EAD activity

SMILES: CC/C=C\C=C/CCCCCCCCCCOC(C)=O [(Z,Z)-11,13-hexadecadien-1-yl acetate]
effect of removing the compound from the full mixture on meal moth captures (meal moth; partial mixtures): increased dramatically captures of male meal moth
catches of meal moth in traps baited with virgin female navel orangeworm plus added compound (meal moth): complete lack of captures
EAD activity of synthetic or authentic compound [3]: same electrophysiological activity as the natural product

SMILES: CC/C=C\C/C=C\C/C=C\C/C=C\C/C=C\CCCCCCC [(Z,Z,Z,Z,Z)-3,6,9,12,15-tricosapentaene]
EAD response of male meal moth antennae [4]: consistently elicited responses from the male antennae
share of NOW antennal preparations with detectable response ([3]; NOW gland extract screened by GC-EAD): about half
EAD activity of natural constituent [3]: much weaker response

SMILES: CC/C=C\C=C/CCCCCCCCCCO [Z11,Z13-16:OH, Z,Z-11,13-hexadecadien-1-ol]
effect of adding the compound to the blend of Z11,Z13-16:Ald with tricosapentaene (NOW males; wind tunnel): further enhanced attraction

SMILES: CCCCCCCCCCCCCCCC(=O)OCC (single isomer, unassigned) [Compound 2, ethyl palmitate]
EAD activity of natural constituent [3]: EAD-active

SMILES: CC/C=C/C=C\CCCCCCCCCC=O [(Z,E)-1, Z,E-11,13-hexadecadienal]
EAD activity of natural constituent [3]: small EAD-active peaks

SMILES: CC/C=C\C=C\CCCCCCCCCC=O [(E,Z)-1, E,Z-11,13-hexadecadienal]
EAD activity of natural constituent [3]: small EAD-active peaks
